Starred links: 1 amine or outer side, 2 acyl side, 3 side chain; linkers in the order of their positions; H or OH if unused. Non-standard residues stand in square brackets, D forms with d. Residues, ends and D or L forms follow the SMILES beside them. X1 = CCC[C@@H](N[*:1])[C@H](C)C(=O)[*:2]; Met(O2) = CS(=O)(=O)CC[C@H](N)C(=O)O; dNMeF = CN[C@H](Cc1ccccc1)C(=O)O; NMeL = CN[C@@H](CC(C)C)C(=O)O; dHiv = CC(C)[C@@H](O)C(=O)O

We go through 6 compounds from ChEMBL document CHEMBL1154261, “Halogenated fatty acid amides and cyclic depsipeptides from an eastern Caribbean collection of the cyanobacterium Lyngbya majuscula” (J Nat Prod, 2009).

The test system of series [1] is HEK293. Briefly: Cytotoxicity against HEK293 cells after 48 hrs by resazurin conversion-based fluorometric assay. It counts as cell-based. To be noted: Homo sapiens, HEK293, 48 h.
The subject of series [2] is HEK293. In words: Cytotoxicity against HEK293 cells at 400 nM after 48 hrs by resazurin conversion-based fluorometric assay. To be noted: human, hek293, 48 h, 0.4 µM. Type of series: cell-based.
The subject of a further series is Spodoptera exigua. Briefly: Antilepidopteran activity against beet armyworm neonates assessed as mortality rate at 1.0 mg/ml after 5 days. It counts as functional.

For `CCC[C@H]1NC(=O)[C@H](C)NC(=O)[C@H](CC(C)C)N(C)C(=O)[C@H](Cc2ccccc2)NC(=O)[C@H](CCS(C)(=O)=O)NC(=O)[C@@H](Cc2ccccc2)N(C)C(=O)[C@@H](C(C)C)OC(=O)[C@H]1C` [CARRIEBOWMIDE SULFONE] (cyclo(A[X1][dHiv][dNMeF][Met(O2)]F[NMeL])), in the series with HEK293 [1], the IC50 is over 50 µM. For the compound `COc1cccc2c1C(=O)c1c(O)c3c(c(O)c1C2=O)C[C@@](O)(C(C)=O)C[C@@H]3O[C@H]1C[C@H](N)[C@H](O)[C@H](C)O1` [DAUNORUBICIN], the Activity in the series on HEK293 [2] is given as 82%. In the series on HEK293 [1], `C[C@@H]1C(=O)O[C@@H](C(C)(C)O)c2nc(cs2)C(=O)OC(C)(C)[C@H](O)c2nc(cs2)C(=O)O[C@H]1CCCC(C)(Cl)Cl` [DEACETYLHECTOCHLORIN] had an IC50 of 6 µM. On to `C=CCCC(C)C(=O)C(C)CC(C)NC(=O)CCC/C(=C/Cl)CCC` (stereo not drawn) [GRENADAMIDE B], for which, in the series on HEK293 [1], the concentration for half-maximal inhibition (IC50) was at least 100 µM. Also, the Activity with Spodoptera exigua is 38%. As for `CCC/C(=C\Cl)CCCC(=O)NC(C)CC(C)C(=O)C(C)CC/C=C/Cl` (stereo not drawn) [GRENADAMIDE], the half-inhibitory concentration (IC50) in the series with HEK293 [1] is at least 100 µM. In the series with Spodoptera exigua, the Activity is 50%.

`CC(CC(=O)N(C)[C@@H]1C(=O)N(C)[C@@H](C(C)C)C(=O)N[C@H](C)C(=O)N(C)[C@@H](C)C(=O)N(C)[C@H](Cc2ccccc2)C(=O)N[C@@H](C)C(=O)O[C@@H]1C)C(Cl)Cl` (stereo partly drawn) [ITRALAMIDE A] yielded an IC50 with HEK293 [1] of 54 µM.
